Results as given in publication PMC11992225, “Antibacterial compounds against non-growing and intracellular bacteria” (npj Antimicrobials and Resistance, 2025).
Where “and” joins values, the source holds several entries; their conditions need not be identical. Equal values may be shown once.

Test system: non-growing S. aureus DSM2569
Assay: Dose-dependent killing analysis (CFU spot-plating) of stationary-phase S. aureus;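 on average Δlog10(CFU/ml) (killing): drug concentration in µM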
Assay type: cell-based, Staphylococcus aureus
Settings: S. aureus; for log10(CFU/ml) after treatment: individual replicates; for average Δlog10(CFU/ml) (killing) / Killing: average Δlog10(CFU/ml): vs 9,097 before treatment
Procedure: To determine the spectrum of activity of the compounds that were effective against non-growing UPEC, we further assessed their efficacy against the well-characterized Gram-negative and Gram-positive reference strains P. aeruginosa DSM1117 and S. aureus DSM2569, respectively. The cultures were grown and treated for 24 h in 1:4 CA-MHB (pH 7.4). […].
For survival analysis, bacteria were cultivated as described for the dose–response dilution-regrowth assay. Assays with UPEC were conducted at the CBCS screening facility using 96-well plates with a 200 μl sample volume, and compounds were dispensed using the Echo® (Labcyte) system. P. aeruginosa and S. aureus samples were treated according to the protocol used for the dilution-regrowth experiments. Treated samples were serially diluted 10-fold in PBS, and 10 μl drops were spot-plated onto rectangular LB agar plates using either a Beckman NXP robot (for UPEC) or an Integra VIAFLO96 electronic pipette (for P. aeruginosa and S. aureus). The LB agar plates were incubated overnight at 37 °C and scanned. Colonies were counted at the spots of the lowest dilution where individual colonies could be accurately distinguished. Each colony was manually marked on a separate image layer using the GNU Image Manipulation Program, and counted using NIST’s Integrated Colony Enumerator (NICE 1.4) software. The experiments were performed in three biological replicates.

N[C@@H]1CCCCN(c2c(F)cc3c(=O)c(C(=O)O)cn(C4CC4)c3c2Cl)C1 [Besifloxacin]
log10(CFU/ml) after treatment (concentration 0.1): 9.061 log10(CFU/ml) and 9.079 log10(CFU/ml) and 8.740 log10(CFU/ml)
log10(CFU/ml) after treatment (concentration 0.5): 8.398 log10(CFU/ml) and 8.431 log10(CFU/ml) and 8.104 log10(CFU/ml)
log10(CFU/ml) after treatment (concentration 2.5): 7.196 log10(CFU/ml) and 7.716 log10(CFU/ml) and 6.826 log10(CFU/ml)
log10(CFU/ml) after treatment (concentration 10): 7.033 log10(CFU/ml) and 7.000 log10(CFU/ml) and 6.100 log10(CFU/ml)

NC1CCN(c2c(F)cc3c(=O)c(C(=O)O)cn(C4CC4)c3c2Cl)C1 (stereo not shown) [Clinafloxacin]
average Δlog10(CFU/ml) (killing) (drug conc 0.1): 0.189 log10(CFU/ml)
average Δlog10(CFU/ml) (killing) (drug conc 0.5): 0.859 log10(CFU/ml)
average Δlog10(CFU/ml) (killing) (drug conc 2.5): 1.351 log10(CFU/ml)
average Δlog10(CFU/ml) (killing) (drug conc 10): 1.499 log10(CFU/ml)

CO[C@H]1/C=C/O[C@@]2(C)Oc3c(C)c(O)c4c(O)c(c(/C=N/N=C/N5CCCCC5)c(O)c4c3C2=O)NC(=O)/C(C)=C\C=C\[C@H](C)[C@H](O)[C@@H](C)[C@@H](O)[C@@H](C)[C@H](OC(C)=O)[C@@H]1C [FCE-22250]
log10(CFU/ml) after treatment, single replicates (concentration 0.1): 9.505 log10(CFU/ml) and 8.903 log10(CFU/ml) and 9.033 log10(CFU/ml)
Killing: average Δlog10(CFU/ml) (concentration 0.1): -0.050 log10(CFU/ml)
log10(CFU/ml) after treatment, single replicates (concentration 0.5): 9.107 log10(CFU/ml) and 9.017 log10(CFU/ml) and 8.505 log10(CFU/ml)
Killing: average Δlog10(CFU/ml) (concentration 0.5): 0.221 log10(CFU/ml)
log10(CFU/ml) after treatment, single replicates (concentration 2.5): 8.929 log10(CFU/ml) and 8.940 log10(CFU/ml) and 8.806 log10(CFU/ml)
Killing: average Δlog10(CFU/ml) (concentration 2.5): 0.205 log10(CFU/ml)
log10(CFU/ml) after treatment, single replicates (concentration 10): 8.973 log10(CFU/ml) and 9.017 log10(CFU/ml) and 8.944 log10(CFU/ml)
Killing: average Δlog10(CFU/ml) (concentration 10): 0.119 log10(CFU/ml)

N#Cc1c(N2C[C@@H]3NCCO[C@H]3C2)c(F)cc2c(=O)c(C(=O)O)cn(C3CC3)c12 [Finafloxacin]
log10(CFU/ml) after treatment, replicate 1 (drug conc. 0.1): 8.820 log10(CFU/ml)
log10(CFU/ml) after treatment, replicate 2 (drug conc. 0.1): 9.041 log10(CFU/ml)
log10(CFU/ml) after treatment, replicate 3 (drug conc. 0.1): 8.982 log10(CFU/ml)
average Δlog10(CFU/ml) (killing) (drug conc. 0.1): 0.149 log10(CFU/ml)
log10(CFU/ml) after treatment, replicate 1 (drug conc. 0.5): 8.857 log10(CFU/ml)
log10(CFU/ml) after treatment, replicate 2 (drug conc. 0.5): 9.176 log10(CFU/ml)
log10(CFU/ml) after treatment, replicate 3 (drug conc. 0.5): 9.090 log10(CFU/ml)
average Δlog10(CFU/ml) (killing) (drug conc. 0.5): 0.056 log10(CFU/ml)
log10(CFU/ml) after treatment, replicate 1 (drug conc. 2.5): 8.820 log10(CFU/ml)
log10(CFU/ml) after treatment, replicate 2 (drug conc. 2.5): 8.954 log10(CFU/ml)
log10(CFU/ml) after treatment, replicate 3 (drug conc. 2.5): 8.820 log10(CFU/ml)
average Δlog10(CFU/ml) (killing) (drug conc. 2.5): 0.233 log10(CFU/ml)
log10(CFU/ml) after treatment, replicate 1 (drug conc. 10): 8.633 log10(CFU/ml)
log10(CFU/ml) after treatment, replicate 2 (drug conc. 10): 8.996 log10(CFU/ml)
log10(CFU/ml) after treatment, replicate 3 (drug conc. 10): 8.623 log10(CFU/ml)
average Δlog10(CFU/ml) (killing) (drug conc. 10): 0.346 log10(CFU/ml)

COc1c(N2CCNC(C)C2)c(F)cc2c(=O)c(C(=O)O)cn(C3CC3)c12 (stereo not shown) [Gatifloxacin]
average Δlog10(CFU/ml) (killing) (drug conc. 0.1): -0.121 log10(CFU/ml)
average Δlog10(CFU/ml) (killing) (drug conc. 0.5): -0.040 log10(CFU/ml)
average Δlog10(CFU/ml) (killing) (drug conc. 2.5): 0.371 log10(CFU/ml)
average Δlog10(CFU/ml) (killing) (drug conc. 10): 0.946 log10(CFU/ml)

COc1c(N2C[C@@H]3CCCN[C@@H]3C2)c(F)cc2c(=O)c(C(=O)O)cn(C3CC3)c12 [Moxifloxacin]
log10(CFU/ml) after treatment (concentration 0.1): 8.934 log10(CFU/ml) and 9.196 log10(CFU/ml) and 8.708 log10(CFU/ml)
log10(CFU/ml) after treatment (concentration 0.5): 8.748 log10(CFU/ml) and 9.004 log10(CFU/ml) and 8.204 log10(CFU/ml)
log10(CFU/ml) after treatment (concentration 2.5): 8.505 log10(CFU/ml) and 8.431 log10(CFU/ml) and 8.167 log10(CFU/ml)
log10(CFU/ml) after treatment (concentration 10): 8.158 log10(CFU/ml) and 8.021 log10(CFU/ml) and 7.519 log10(CFU/ml)
